The text below walks through data of patent publication USRE37534E1, “Pharmaceutical compositions” (BTG International Limited, priority 1982, dated 2002).

Data set [1] has as its system rat jejunal sac. The data set is described as follows: Permeation of everted rat jejunal sac by iron complexes. The format is in vitro ADME. The following applies: for Relative iron uptake, 15 minutes / Relative iron uptake, 60 minutes: relative to ferric chloride as 1. From the text: Rats (male Sprague Dawley, 60 g) were killed and the jejunum removed, everted and cut into three segments (4 cm length). […] The contents of the sac were counted for ^59Fe and measured spectrophotometrically. […] The procedure described above was used to compare the uptake of iron from buffer containing differing molar proportions of maltol:iron.

The test system of data set [2] is human erythrocytes. The data set is described as follows: Permeation of iron complexes into human erythrocytes (59Fe distribution ratio). The format is cell-based. The following applies: 37° C.; for Distribution ratio (concentration in erythrocytes/concentration in medium): 1 hour, pH 7.4.
Description: Following this period of incubation an aliquot of the erythrocyte/medium mixture was placed above a layer of silicone oil (ρ=1.06) and the erythrocytes separated by centrifugation through the oil. The ^59Fe levels associated with the erythrocytes and the incubation medium were then counted and presented as a distribution ratio (concentration in erythrocytes/concentration in medium).
Data set [3] in a line: In vivo 59Fe uptake after administration into the duodenum of the rat. The following applies: 100 μg Fe into duodenum; for introduction of iron via the rat intestine (59Fe in organs), comparison: 1-6 hours, FIGS. 1-4. The method, then:
Groups of rats (300-350 g) were anaesthetised with nembutal (0.25 ml) and then with ether. […] The abdominal well was then closed with a suture. […] In the case of the data for blood and sternum (bone marrow) the counts given are cpm/ml and cpm/g respectively, whilst in all other cases they are the total cpm counts.

The nature of data set [4]: Iron take-up in human subjects by whole body counting. The following applies: for level of take-up of iron by whole body counting: normal subject. The format is in vivo. The method, then: Capsules containing 3:1 iron(III) maltol, […] were prepared according to the procedure of Example 7^(1) with the modification that at 3:1 molar ratio of maltol:iron was used (no free maltol therefore being present in the capsules) and that a proportion of the ferric chloride used in the preparation of the iron maltol was radiolabelled as ^59Fe. The capsules each contained 10 mg of iron, this amount being labelled with 1 microcurie of ^59Fe, and were subjected to a single coating procedure.
The test involved two normal subjects, i.e. not suffering from iron deficiency, one of whom took a 10 mg dose of iron (one capsule) and the other whom took a 20 mg does of iron (two capsules). The capsule or capsules were taken after fasting overnight and fasting was then continued for a further 2 hours. The take-up of iron by the subjects was followed by means of whole body counting, using a calibrated body counter, reading being taken 4 to 8 hours after ingestion of the capsules to establish a base level and then after 7 and 14 days. Excretion of iron by the subjects was followed through the counting, in a large volume counter calibrated for iron, of daily urine samples over 3 days and daily stool samples over 10 days.

Data set [5] in a line: In vivo 59Fe blood kinetics and tissue distribution in the cat, intravenous. The note with it: for Net ^59Fe content (cpm/g) / Net total ^59Fe content (cpm): 2 μCi given, figures adjusted to 2.2×10^6 cpm. The method, then:
Body temperature was monitored with a rectal thermometer.
The iron maltol complex (100 μg Fe) alone (3:1 molar ratio of maltol:iron) and together with a large excess of maltol (40:1 molar ratio of maltol:iron) was injected intravenously in separate experiments and 0.25 ml samples of blood were taken in intervals. The apparent volume of distribution of the compound was calculated by extrapolation of the log-linear blood concentration curve to zero.
The amount of ^59Fe administration in this experiment was 4 μCi or 2.2×10^6 cpm.

The nature of data set [6]: Affinity / stability constant of ligand for iron(III). The format is physicochemical. From the text:
(§1) In order to solubilise iron(III) hydroxide, log Ksol must be greater than 0. The value of Ksol for maltol is 0.8 and this is also sufficiently large to prevent appreciable competition from phytate, phosphate, thiols and other potential ligands likely to occur in the intestinal lumen.

The target of data set [7] is haemoglobin (Homo sapiens, UniProt P68871+P69905). The data set is described as follows: Binding of 59Fe-labelled complex to haemoglobin (gel permeation column). The following applies: 59Fe-labelled complex 1 mM, NaCl 130 mM, pH 7.4. The method, then: (§2) The ability of the iron complex of maltol to bind to haemoglobin is investigated by studying the elution profile of a ^59Fe label when a mixture of haemoglobin and the ^59Fe-labeled complex (at 1 mM concentration) in NaCl (130 mM) buffered to pH 7.4 by Tris hydrochloride is applied to a PH-10 column (Sephadex G-10 gel permeation column—Pharmacia).
Chain of haemoglobin (P69905 2-142 limits assumed): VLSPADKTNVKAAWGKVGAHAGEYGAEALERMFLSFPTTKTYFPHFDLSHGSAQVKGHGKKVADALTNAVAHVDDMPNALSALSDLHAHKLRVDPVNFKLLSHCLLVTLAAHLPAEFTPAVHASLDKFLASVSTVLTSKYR
Chain of haemoglobin (P68871 2-147 limits assumed): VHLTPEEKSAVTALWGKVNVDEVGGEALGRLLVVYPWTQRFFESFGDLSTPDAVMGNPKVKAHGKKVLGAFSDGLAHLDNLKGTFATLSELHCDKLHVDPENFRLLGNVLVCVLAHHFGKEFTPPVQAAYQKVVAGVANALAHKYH

Data set [8] addresses bovine serum albmen (BSA) (Bos taurus, UniProt P02769). Put plainly: Binding of complex to BSA (gel permeation column). The following applies: as haemoglobin procedure, pH 7.4. On the procedure:
as §2
The ability of the iron complex of maltol to bind to bovine serum albmen (BSA) is investigated through a similar procedure in which the complex is applied to a column with BSA rather than haemoglobin.

The conditions of data set [9]: in vivo.
From the text: (§3) In each animal the trachea was cannulated to maintain a clear airway and to allow positive pressure artificial respiration if necessary. The left femoral vien was cannulated for the intravenous administration of drugs and physiological saline solution. Arterial blood pressure was monitored by a Washington pressure transducer through a cannula inserted into the femoral artery of the right hind leg. Arterial blood samples were taken at appropriate intervals from a short cannula inserted into an external carotid artery. Body temperature was monitored with a rectal thermometer. Each animal was given heparin (1000 iu/kg) as anticoagulant and additional small amounts of pentobarbitone sodium if needed to maintain a satisfactory level of anaesthesia.
(§4) If those animals where the iron compounds were to be administered into the duodenum, a mid-line incision was made in the abdomen to reveal the intestines. A cannula was then inserted through a small cut such that its tip rested approximately 5 cm below the opening of the bile duct. The cannula was then sutured in place and the abdominal wall closed with stitches.
(§5) The iron maltol complex (100 μg Fe) was also administered to the duodenum of the cat in the presence of a 40 fold excess of maltol followed by 5 ml of 150 ml tris hydrochloride buffer (pH 7.4).
The nature of data set [10]: In vivo 59Fe blood level and tissue distribution in the cat, per duodenum. The following applies: 2.65×10^6 cpm administered.
From the text: as §3, §4, §5
Data set [11] can be described thus: Partition coefficient Kpart n-octanol / Tris hydrochloride. It is filed as physicochemical. The note with it: pH 7.4. On the procedure:
An indication of the properties of a compound in this respect is provided by the value of the partition coefficient (Kpart) obtained on partition between n-octanol and Tris hydrochloride (20 mM, pH 7.4; Tris representing 2-amino-2-hydroxymethylpropane 1,3-diol) at 20° C. and expressed as the ratio (concentration of compound in organic phase)/(concentration of compound in aqueous phase).
The partition coefficient Kpart (concentration in n-octanol/concentration in aqueous phase) between n-octanol and Tris hydrochloride (20 mM, pH 7.4) of maltol and of its 3:1 iron complex is measured at 10^−4 M by spectrophotometry. Acid washed glassware is used throughout and, following mixing for 1 minute, the aqueous/n-octanol mixture is […] at 1000 g for 30 seconds. The two resulting phases are separated for a concentration determination by spectrophotometry on each. For maltol, the range 220-340 nm is used for the concentration determination whilst for the complex the range 340-640 nm is used.

The nature of data set [12]: Ksol (ability to solubilise iron(III) hydroxide). The format is physicochemical.
From the text: as §1

Chain of bovine serum albmen (BSA) (P02769 25-607): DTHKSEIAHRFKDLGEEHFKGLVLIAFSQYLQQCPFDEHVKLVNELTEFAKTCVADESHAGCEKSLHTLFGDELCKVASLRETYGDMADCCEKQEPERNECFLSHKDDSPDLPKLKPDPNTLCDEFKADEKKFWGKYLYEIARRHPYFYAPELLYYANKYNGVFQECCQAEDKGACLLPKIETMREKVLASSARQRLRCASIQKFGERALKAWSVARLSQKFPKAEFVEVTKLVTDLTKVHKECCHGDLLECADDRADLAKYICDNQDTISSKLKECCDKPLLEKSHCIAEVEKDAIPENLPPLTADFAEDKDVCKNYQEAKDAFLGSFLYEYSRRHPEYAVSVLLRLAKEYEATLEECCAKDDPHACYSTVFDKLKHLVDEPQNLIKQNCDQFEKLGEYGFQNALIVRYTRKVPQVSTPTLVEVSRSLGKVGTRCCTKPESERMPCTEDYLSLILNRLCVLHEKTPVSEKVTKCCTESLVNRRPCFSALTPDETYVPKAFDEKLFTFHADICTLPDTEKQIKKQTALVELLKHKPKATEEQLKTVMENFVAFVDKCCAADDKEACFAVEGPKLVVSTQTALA

Take `[Cl][Fe]([Cl])[Cl]` [FeCl3]: in [1], the “Relative iron uptake, 15 minutes” value was 1 and the “Relative iron uptake, 60 minutes” value stood at 1.

`O=C([O-])/C=C/C(=O)[O-].[Fe+2]` [Fe^II fumarate]: in data set [1], the “Relative iron uptake, 15 minutes” value is 4.0 and the “Relative iron uptake, 60 minutes” value is reported as 1.8.

With `O=C([O-])[C@H](O)[C@@H](O)[C@H](O)[C@H](O)CO.O=C([O-])[C@H](O)[C@@H](O)[C@H](O)[C@H](O)CO.[Fe+2]` [Fe^II gluconate], the “Distribution ratio (concentration in erythrocytes/concentration in medium)” value in [2] (1 mM) turned out to be 0.08. In [3], the “introduction of iron via the rat intestine (59Fe in organs), comparison” value (“introduction” below) is “more effective than the sulphate or the EDTA complex”. In data set [1], the “Relative iron uptake, 15 minutes” value was determined as 1.6 and the “Relative iron uptake, 60 minutes” value was found to be 0.8.

Consider `O=C([O-])CCC(=O)[O-].[Fe+2]` [Fe^II succinate], for which, in data set [1], the “Relative iron uptake, 15 minutes” value amounted to 2.0 and the “Relative iron uptake, 60 minutes” value is 1.0.

Turning to `O=S(=O)([O-])[O-].[Fe+2]` [Fe^II sulphate], in data set [4] (10 mg dose, at 7 days), the “level of take-up of iron by whole body counting” value (from here on “level of take-up of iron”) was determined as 13%. The “level of take-up of iron” value in data set [4] (20 mg dose, at 7 days) was 6%. Moreover, in data set [1], the “Relative iron uptake, 15 minutes” value amounted to 2.4 and the “Relative iron uptake, 60 minutes” value is on record as 1.4.

In the case of `Cc1occc(=O)c1[O-].Cc1occc(=O)c1[O-].Cc1occc(=O)c1[O-].[Fe+3]` [Fe^III (maltol)3], the “Distribution ratio (concentration in erythrocytes/concentration in medium)” value in data set [2] (3 mM) is listed as 1.60. Besides, in [2] (erythrocytes), the “time for uptake to reach equilibrium” value was “about 15 minutes”. In data set [5] (in vivo, iv), the “59Fe directed to the bone marrow (bulk, inferred)” value is listed as “approximately 90%”; the “dose located in combined tissue of heart, liver and spleen” value is “approximately 10%”; the “dose located in the urine” value is recorded as “less than 0.2%”. Further, the thermodynamic stability constant in [6] (3:1 complex) is reported as 30. In addition, in data set [3] (listed as maltol complex), the “introduction” value was “more efficient than iron(III) EDTA”. Further, the “introduction” value in data set [3] (listed as neutral 3:1 maltol:iron(III) complex) is “markedly superior to iron(II) sulphate”. In data set [4] (daily urine samples over 3 days), the “loss of iron in the urine” value is “essentially zero loss of iron”. In data set [4] (10 mg dose of iron, oral capsule, 14 day figure), the “level of take-up of iron” value was 19%. Also, the “level of take-up of iron” value in [4] (20 mg dose of iron, oral capsules, 14 day figure) is 11%. The “concentration dependence of uptake” value in data set [1] (0.5 to 10 mM, uptake increased linearly) is on record as “does not show saturation kinetics”. For the same molecule, the “Iron uptake (n mole)” value in data set [1] (iron transferred into serosal contents of sac, basal uptake subtracted, by maltol/iron molar ratio) stood at 30.0 n mole. Further, in [1] (jejunal sac, up to 90 minutes), the “time course of uptake” value is “linear for a period 90 minutes”. Moreover, in [1], the “Relative iron uptake, 15 minutes” value came to 40 and the “Relative iron uptake, 60 minutes” value amounted to 5.8. Also, in data set [7], the “binding of the complex to haemoglobin” value was “no evidence if found for binding”. Moreover, in data set [8], the “ability to bind to BSA” value was “little ability to bind to BSA”.

With `O=C([O-])CN(CCN(CC(=O)[O-])CC(=O)O)CC(=O)[O-].[Fe+3]` [Fe^III EDTA], the “Net ^59Fe content (cpm/g)” value is 209 cpm/g in data set [5] (Heart, i.v.); 1,134 cpm/g in data set [5] (Kidney, i.v.); 261 cpm/g in [5] (Liver, i.v.); 95 cpm/g in data set [5] (Skeletal muscle, i.v.); 162 cpm/g in data set [5] (Spleen, i.v.); 1,164 cpm/g in [5] (Sternum (bone marrow), i.v.). The “Net ^59Fe content (cpm/g)” value in data set [5] (Urine (19 ml, 2 ml sample), i.v.) was 62,156 cpm/g; in [10] (Heart) it was 188 cpm/g; in data set [10] (Kidney), 1,762 cpm/g; in data set [10] (Liver), 499 cpm/g; in data set [10] (Skeletal muscle), 117 cpm/g; in [10] (Spleen), 200 cpm/g. The “Net ^59Fe content (cpm/g)” value in [10] (Sternum (bone marrow)) is 917 cpm/g; in data set [10] (Urine (5 ml sample)), 36,306 cpm/g. Also, the “Net total ^59Fe content (cpm)” value in data set [5] (Heart, i.v.) is reported as 3,248 cpm; in [5] (Kidney, i.v.), 21,770 cpm; in data set [5] (Liver, i.v.) it was 19,600 cpm; in data set [5] (Spleen, i.v.), 1,814 cpm; in data set [5] (Urine (19 ml), i.v.), 1,180,900 cpm; in [10] (Heart) it was 2,878 cpm. The “Net total ^59Fe content (cpm)” value in data set [10] (Kidney) is on record as 19,913 cpm; in data set [10] (Liver), 29,574 cpm; in data set [10] (Spleen) it was 880 cpm; in [10] (Urine (15 ml)) it was 544,596 cpm. In addition, in data set [5] (i.v.), the “rate constant of the elimination from the blood, linear phase of the regression” value came to 0.023 min⁻¹. Besides, in [5] (i.v., end of experiment), the “dose located in the urine” value is given as “over 50%”. In addition, the “levels of 59Fe in the intestine wall and blood” value in [3] (FIG. 3) is listed as “extremely low”. In addition, the “plasma levels of radioactivity” value in data set [9] was “hardly exceeded the background level”.

Regarding `Cc1occc(=O)c1O` [maltol, 3-hydroxy-2-methyl-4-pyrone], the logD in data set [11] was -0.18. Also, the “log β3 (affinity for iron)” value in [6] (ligand maltol, iron) amounted to 30. The Ksol in data set [12] (ligand, log Ksol must be greater than 0 to solubilise iron(III) hydroxide) was found to be 0.8.

Consider Fe^III ascorbate, for which the “Distribution ratio (concentration in erythrocytes/concentration in medium)” value in data set [2] (1 mM) is 0.12. In addition, in data set [1], the “Relative iron uptake, 15 minutes” value was 0.4 and the “Relative iron uptake, 60 minutes” value came to 0.8.

For the molecule Fe^III citrate, in [2] (1 mM), the “Distribution ratio (concentration in erythrocytes/concentration in medium)” value is listed as 0.05. In addition, in data set [1], the “Relative iron uptake, 15 minutes” value is 2.0 and the “Relative iron uptake, 60 minutes” value is recorded as 1.8.

Turning to “apotransferrin: iron-free transferrin, reference for log Ksol”, the “log Ksol” value in data set [12] stood at 6.0.
